Data published in US10738041B2, “Ferroportin inhibitors” (Vifor (International) AG, priority 2015, dated 2020).

Experiments:
human Fpn-GFP fusion = molecular target: T1, human Fpn-GFP fusion (Homo sapiens, UniProt Q9NP59); experiment: Inhibition of ferroportin mediated iron export activity in an iron response assay (BLAzer); assay type: cell-based; conditions: average of multiple measurements; HEK-293 cell line #354; read-out: BLAzer EC50
T1 construct: expressed in transfected cells; host or cells: HEK-293 cell line #354 (derivative of HEK-293 Tet-ON Advanced, Clontech)
T1 sequence (Q9NP59 1-571): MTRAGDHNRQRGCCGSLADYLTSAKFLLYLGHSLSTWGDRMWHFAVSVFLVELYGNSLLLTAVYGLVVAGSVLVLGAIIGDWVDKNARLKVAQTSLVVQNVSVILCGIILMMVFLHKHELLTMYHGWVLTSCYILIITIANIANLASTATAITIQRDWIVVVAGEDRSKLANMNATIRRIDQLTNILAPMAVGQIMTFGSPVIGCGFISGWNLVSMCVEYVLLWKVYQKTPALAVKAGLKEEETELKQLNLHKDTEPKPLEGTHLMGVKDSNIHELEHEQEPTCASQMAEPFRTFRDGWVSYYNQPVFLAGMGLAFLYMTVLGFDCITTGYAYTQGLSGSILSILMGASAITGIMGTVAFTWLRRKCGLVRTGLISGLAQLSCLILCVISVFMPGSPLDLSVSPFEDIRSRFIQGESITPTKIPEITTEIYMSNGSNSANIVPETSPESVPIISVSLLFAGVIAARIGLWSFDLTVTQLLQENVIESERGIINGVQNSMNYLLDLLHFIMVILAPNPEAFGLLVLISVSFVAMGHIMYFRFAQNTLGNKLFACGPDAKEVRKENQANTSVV
Source text: Intracellular iron levels are indirectly measured in this assay by monitoring the activity of a beta-lactamase (BLA) reporter gene fused to the human ferritin promoter and the associated iron regulatory element (IRE) contained within the 5′ untranslated region of the ferritin mRNA. Expression of ferroportin (Fpn) in such a cell line leads to iron efflux and lower iron levels as reflected by lower activity of the reporter gene. On the other hand, inhibition of Fpn-mediated iron efflux results in elevated cellular iron levels which is detected as increased reporter gene activity. Small molecular weight Fpn inhibitor compounds were tested for dose-dependent effects in this in vitro iron response assay as described below.
The HEK-293 cell line #354 was generated by stable integration of (i) a human Fpn-GFP fusion construct inserted in a derivative of the doxycycline-inducible pTRE-Tight-BI plasmid (Clontech, Cat. 631068) and (ii) a human ferritin promoter-BLA reporter gene into a derivative of the HEK-293 Tet-ON Advanced cell line (Clontech). […] After overnight incubation, 10 μl/well of dilution series of the test compounds were added in quadruplicates and plates were further incubated overnight at 37° C. with 5% CQ. Cells were washed 3 times with HBSS leaving 25 μl per well. BLA activity was detected by adding 5 μl/well of the GeneBlazer reagent CCF4-AM (Invitrogen, Cat. K1085) to the cells. After incubation of the plates in the dark at 18° C. for 60 min., blue and green fluorescence signals were measured in a Safre2 fluorescence plate reader (Tecan) with excitation at 410 nm and emissions at 458 nm (blue) and 522 nm (green). The ratio of blue/green fluorescence as a measure for BLA activity was calculated and EC50 values were determined with the calculated blue/green fluorescence ratios as described for the hepcidin internalization assay.

ferroportin (Fpn) = molecular target: T2, ferroportin (Fpn) (Mus musculus, UniProt Q9JHI9); experiment: Hepcidin Internalization Assay (J774); assay type: cell-based; conditions: average of multiple measurements; inhibition of TMR-hepcidin (25 nM) internalization into J774 cells; read-out: J774 IC50
T2 construct: host or cells: J774 mouse macrophage cell line, Fe(III)-NTA induced
T2 sequence (Q9JHI9 1-570): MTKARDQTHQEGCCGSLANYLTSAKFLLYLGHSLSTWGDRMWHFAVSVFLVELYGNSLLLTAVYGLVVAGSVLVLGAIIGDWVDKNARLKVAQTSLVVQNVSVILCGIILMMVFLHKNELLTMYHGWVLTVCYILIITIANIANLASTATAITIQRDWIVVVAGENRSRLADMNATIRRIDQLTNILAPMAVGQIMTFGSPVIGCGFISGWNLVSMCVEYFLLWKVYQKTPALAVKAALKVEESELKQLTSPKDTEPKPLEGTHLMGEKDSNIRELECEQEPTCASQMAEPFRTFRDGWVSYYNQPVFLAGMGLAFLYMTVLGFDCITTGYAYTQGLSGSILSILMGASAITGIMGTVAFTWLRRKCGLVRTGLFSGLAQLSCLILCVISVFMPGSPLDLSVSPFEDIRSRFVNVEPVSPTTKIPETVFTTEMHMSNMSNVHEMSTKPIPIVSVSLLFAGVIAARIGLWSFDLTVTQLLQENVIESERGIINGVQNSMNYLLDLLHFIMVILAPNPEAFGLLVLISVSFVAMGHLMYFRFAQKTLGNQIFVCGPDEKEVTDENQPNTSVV
How it was run: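 Inhibition of fluorescent TMR-hepcidin uptake via ferroportin was imaged in fixed J774 cells after a 2 h, 37 °C co-incubation with compound dilutions; cells were pre-cultured overnight with 200 μM Fe(III)NTA. Internalized TMR signal per cell (Sum(Mean)) was fitted as log(inhibitor) vs. response for IC50, in triplicate.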

human Fpn = molecular target: T3, human Fpn (Homo sapiens, UniProt Q9NP59); experiment: Biophysical Ferroportin-Hepcidin Binding Assay (fluorescence polarization); conditions: average of multiple measurements; 1 μM human Fpn, 20 nM TMR-hepcidin; read-out: FP IC50
T3 construct: FLAG (C); made in house; host or cells: Pichia pastoris
T3 sequence (Q9NP59 1-571): T1 sequence (Q9NP59 1-571)
Description: This biophysical assay was developed to confirm inhibition of hepcidin binding to ferroportin (Fpn) more directly. Incubation of TMR-hepcidin with purified human Fpn isolated from Pichia pastoris yeast cells expressing human Fpn with a C-terminal FLAG affinity tag (Bonaccorsi di Patti, 2014) leads to increased fluorescence polarization (FP) of the TMR-hepcidin ligand. Small molecular weight Fpn inhibitors were tested for inhibition of binding of TMR-hepcidin to Fpn, as detected by dose-dependent decrease of the TMR FP signal, as described in detail below.
8 μl of serial dilutions of test compounds were added in duplicates to reach final Fpn and TMR-hepcidin concentrations of 1 μM and 20 nM, respectively. Plates were incubated for 90 minutes at room temperature and parallel (S) and perpendicular (P) fluorescence was measured in a Synergy H1 fluorescence reader (BioTek). FP values were calculated in mP according to the following formula.

Row | Compound | EC50 (human Fpn-GFP fusion) | IC50 (ferroportin (Fpn)) | IC50 (human Fpn)
1 | Cn1ccnc1CNCCc1nc(C(=O)NCc2ccccc2)cs1 [Example 2] | 1.64 µM | 6300 nM | 10600 nM
2 | O=C(NCC1CCCCC1)c1csc(CCNCc2nc3ccccc3[nH]2)n1 [Example 13] | 27 µM | 1700 nM | 530 nM
3 | O=C(c1csc(CCNCc2nc3ccccc3[nH]2)n1)N1CCc2ccccc2C1 [Example 15] | 2.22 µM | 1600 nM | 1470 nM
4 | O=C(NCc1ccccc1)c1csc(CCNCc2cc3ccccc3[nH]2)n1 [Example 24] | 12.8 µM | 2800 nM | –
5 | O=C(NCc1ccccc1)c1csc(CCNCCc2nc3ccccc3[nH]2)n1 [Example 29] | 2.53 µM | 510 nM | 136 nM
6 | Cc1ccc2[nH]c(CNCCc3nc(C(=O)NCc4ccccc4)cs3)nc2c1 [Example 32] | 1.87 µM | 2600 nM | 1210 nM
7 | O=C(NCc1ncccc1C(F)(F)F)c1csc(CCNCc2nc3ccccc3[nH]2)n1 [Example 37] | 7.92 µM | 810 nM | 1900 nM
8 | O=C(NC1CCCc2cccnc21)c1csc(CCNCc2nc3ccccc3[nH]2)n1 (stereo not drawn) [Example 38] | 2.98 µM | 30 nM | 233 nM
9 | Cc1cccc(CNC(=O)c2csc(CCNCc3nc4ccccc4[nH]3)n2)n1 [Example 42] | 36.3 µM | 600 nM | 2170 nM
10 | O=C(NCc1ccc(F)cn1)c1csc(CCNCc2nc3ccccc3[nH]2)n1 [Example 43] | 30.9 µM | 250 nM | 1520 nM
11 | O=C(NCc1ccncn1)c1csc(CCNCc2nc3ccccc3[nH]2)n1 [Example 44] | 18.3 µM | 1330 nM | 5340 nM
12 | O=C(NCc1cnccn1)c1csc(CCNCc2nc3ccccc3[nH]2)n1 [Example 46] | 38.7 µM | 590 nM | 4340 nM
13 | O=C(NCc1ccccc1)c1csc(CCNCc2nc3cc(C(F)(F)F)ccc3[nH]2)n1 [Example 51] | 4.47 µM | 360 nM | 530 nM
14 | O=C(NCc1ccccc1)c1csc(CCNCc2nc3cc(Cl)ccc3[nH]2)n1 [Example 52] | 2.08 µM | 340 nM | 1360 nM
15 | N#Cc1ccc(CNC(=O)c2csc(CCNCc3nc4ccccc4[nH]3)n2)cn1 [Example 56] | 10.4 µM | 410 nM | 566 nM
16 | Cc1cnc(CNC(=O)c2csc(CCNCc3nc4ccccc4[nH]3)n2)c(C)c1 [Example 57] | 2.11 µM | 100 nM | 430 nM
17 | COc1cccnc1CNC(=O)c1csc(CCNCc2nc3ccccc3[nH]2)n1 [Example 59] | 1.38 µM | 50 nM | 270 nM
18 | O=C(NCc1ncccn1)c1csc(CCNCc2nc3ccccc3[nH]2)n1 [Example 61] | 37.5 µM | 560 nM | 1690 nM
19 | Cn1ccnc1CNC(=O)c1csc(CCNCc2nc3ccccc3[nH]2)n1 [Example 64] | 4.53 µM | 130 nM | 1240 nM

Row | Compound | EC50 (human Fpn-GFP fusion) | IC50 (ferroportin (Fpn)) | IC50 (human Fpn)
20 | O=C(NCc1ccccc1F)c1csc(CCNCc2nc3ccccc3[nH]2)n1 [Example 65] | 32.3 µM | 850 nM | 950 nM
21 | O=C(NCc1ccccc1)c1cccc(CCNCc2nc3ccccc3[nH]2)c1 [Example 67] | 33.5 µM | 530 nM | 3400 nM
22 | CN1CCN(c2ccccc2CNC(=O)c2csc(CCNCc3nc4ccccc4[nH]3)n2)CC1 [Example 68] | 10.4 µM | 2500 nM | 4060 nM
23 | N#Cc1ccccc1CNC(=O)c1csc(CCNCc2nc3ccccc3[nH]2)n1 [Example 71] | 1.79 µM | 240 nM | 508 nM
24 | O=C(NCc1ccccc1S(=O)(=O)N1CCOCC1)c1csc(CCNCc2nc3ccccc3[nH]2)n1 [Example 75] | 6 µM | 530 nM | 1830 nM
25 | Cc1ccc(F)c(CNC(=O)c2csc(CCNCc3nc4ccccc4[nH]3)n2)n1 [Example 79] | 0.84 µM | 37 nM | 820 nM
26 | Cn1cncc1CNC(=O)c1csc(CCNCc2nc3ccccc3[nH]2)n1 [Example 84] | 13.2 µM | 400 nM | 2410 nM
27 | O=C(NCc1ncco1)c1csc(CCNCc2nc3ccccc3[nH]2)n1 [Example 85] | 18.7 µM | 29 nM | 1870 nM
28 | Cn1ccc(CNC(=O)c2csc(CCNCc3nc4ccccc4[nH]3)n2)n1 [Example 86] | 22.3 µM | 480 nM | 4960 nM
29 | O=C(NCc1cccnn1)c1csc(CCNCc2nc3ccccc3[nH]2)n1 [Example 87] | 16.6 µM | 190 nM | 2250 nM
30 | Cn1nccc1CNC(=O)c1csc(CCNCc2nc3ccccc3[nH]2)n1 [Example 88] | 13.1 µM | 780 nM | 6760 nM
31 | O=C(NCc1ccncc1F)c1csc(CCNCc2nc3ccccc3[nH]2)n1 [Example 89] | 5.05 µM | 89 nM | 922 nM
32 | Cc1ccc(CNC(=O)c2csc(CCNCc3nc4ccccc4[nH]3)n2)nn1 [Example 93] | 20.6 µM | 530 nM | 1030 nM
33 | Cc1ccc(CNC(=O)c2csc(CCNCc3nc4ccccc4[nH]3)n2)nc1 [Example 97] | 1.81 µM | 270 nM | 2130 nM
34 | Cc1cc(CNC(=O)c2csc(CCNCc3nc4ccccc4[nH]3)n2)ccn1 [Example 99] | 22.8 µM | 2990 nM | 4330 nM
35 | Cc1c(CNC(=O)c2csc(CCNCc3nc4ccccc4[nH]3)n2)cnn1C [Example 100] | 6.56 µM | 460 nM | 1420 nM
36 | N#Cc1ccc2[nH]c(CCNCCc3nc(C(=O)NCc4ncccc4F)co3)nc2c1 [Example 265] | 2 µM | 70 nM | –
37 | O=C(NCc1ncccc1F)c1cncc(CCNCCc2nc3ccccc3[nH]2)c1 [compound 229] | 4.06 µM | – | 43 nM
